Experiments:
Experiment in all cases: relative viability (nuclei count vs DMSO), 5 days (fraction); higher = more cells survive
Tipifarnib + Crizotinib = compound: Cn1cncc1[C@@](N)(c1ccc(Cl)cc1)c1ccc2c(c1)c(-c1cccc(Cl)c1)cc(=O)n2C [Tipifarnib] + C[C@@H](Oc1cc(-c2cnn(C3CCNCC3)c2)cnc1N)c1c(Cl)ccc(F)c1Cl [Crizotinib] (partner 1 µM)
Outline: (§1)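 After 5 days of treatment, lung cancer cells in 1536-well plates were fixed and stained in a single step (final 0.05% Triton X-100, 1% formaldehyde, 1 ug/ml Hoechst) and their nuclei counted on 4× images. Treatment had been applied by pin tool the day after seeding as one drug alone or as a fixed anchor-drug dose with five library-drug doses (not always all listed) in √10 steps. Relative viability is the nuclei count of treated wells divided by that of vehicle wells, and values are medians of duplicate plates.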

Tipifarnib + Tozasertib = compound: Cn1cncc1[C@@](N)(c1ccc(Cl)cc1)c1ccc2c(c1)c(-c1cccc(Cl)c1)cc(=O)n2C [Tipifarnib] + Cc1cc(Nc2cc(N3CCN(C)CC3)nc(Sc3ccc(NC(=O)C4CC4)cc3)n2)n[nH]1 [Tozasertib] (partner 0.1 µM)
Outline: as §1

Tipifarnib + Lapatinib = compound: Cn1cncc1[C@@](N)(c1ccc(Cl)cc1)c1ccc2c(c1)c(-c1cccc(Cl)c1)cc(=O)n2C [Tipifarnib] + CS(=O)(=O)CCNCc1ccc(-c2ccc3ncnc(Nc4ccc(OCc5cccc(F)c5)c(Cl)c4)c3c2)o1 [Lapatinib] (partner 2 µM)
Outline: as §1

Tipifarnib + Decitabine = compound: Cn1cncc1[C@@](N)(c1ccc(Cl)cc1)c1ccc2c(c1)c(-c1cccc(Cl)c1)cc(=O)n2C [Tipifarnib] + Nc1ncn([C@H]2C[C@H](O)[C@@H](CO)O2)c(=O)n1 [Decitabine] (partner 2 µM)
Outline: as §1

Cell Line	relative viability (Tipifarnib + Crizotinib; first compound 0.01 µM)	relative viability (Tipifarnib + Crizotinib; first compound 0.03162 µM)	relative viability (Tipifarnib + Crizotinib; first compound 0.1 µM)	relative viability (Tipifarnib + Crizotinib; first compound 0.3162 µM)	relative viability (Tipifarnib + Crizotinib; first compound 1 µM)	relative viability (Tipifarnib + Tozasertib; first compound 0.01 µM)	relative viability (Tipifarnib + Tozasertib; first compound 0.03162 µM)	relative viability (Tipifarnib + Tozasertib; first compound 0.1 µM)	relative viability (Tipifarnib + Tozasertib; first compound 0.3162 µM)	relative viability (Tipifarnib + Tozasertib; first compound 1 µM)	relative viability (Tipifarnib + Lapatinib; first compound 0.01 µM)	relative viability (Tipifarnib + Lapatinib; first compound 0.03162 µM)	relative viability (Tipifarnib + Lapatinib; first compound 0.1 µM)	relative viability (Tipifarnib + Lapatinib; first compound 0.3162 µM)	relative viability (Tipifarnib + Lapatinib; first compound 1 µM)	relative viability (Tipifarnib + Decitabine; first compound 0.01 µM)	relative viability (Tipifarnib + Decitabine; first compound 0.03162 µM)	relative viability (Tipifarnib + Decitabine; first compound 0.1 µM)	relative viability (Tipifarnib + Decitabine; first compound 0.3162 µM)	relative viability (Tipifarnib + Decitabine; first compound 1 µM)
201T	1.05	0.909	0.987	0.954	0.885	1.02	0.945	0.864	0.705	0.767	0.988	1.05	0.965	0.947	0.866	0.875	0.841	0.88	0.783	0.816
A-427	1.01	0.866	0.782	0.732	0.844	0.164	0.205	0.227	0.171	0.211	1	1.13	1.08	0.893	0.46	0.621	0.548	0.574	0.478	0.449
ABC-1	1.05	–	0.609	0.676	0.452	0.21	–	0.191	0.154	0.238	1.37	1.39	1.58	1.39	1.59	1.33	1.03	1.13	0.738	0.706
BEN	0.928	0.939	0.731	0.684	0.636	0.576	0.398	0.491	0.418	0.504	0.743	0.842	0.629	0.578	0.568	0.748	0.759	0.66	0.699	0.503
CAL-12T	0.567	0.387	0.334	0.173	0.228	0.277	0.278	0.241	0.188	0.246	0.709	0.716	0.619	0.525	0.393	–	–	–	–	–
COR-L23	0.731	0.341	0.3	0.248	0.386	0.213	0.175	0.232	0.146	0.15	0.942	0.641	0.739	0.582	0.4	0.526	0.329	0.375	0.347	0.288
COR-L 105	0.538	0.392	0.383	0.407	0.317	0.333	0.356	0.281	0.305	0.294	0.418	0.317	0.349	0.378	0.296	0.635	0.636	0.478	0.479	0.473
Calu-6	0.694	0.566	0.452	0.434	0.344	–	–	–	–	–	1.02	0.801	0.771	0.599	0.535	–	–	–	–	–
ChaGo-K-1	1.12	1.23	0.762	0.992	0.484	0.226	0.22	0.213	0.198	0.175	–	–	–	–	–	0.542	0.535	0.549	0.483	0.465
EBC-1	0.195	0.198	0.215	0.206	0.172	–	–	–	–	–	0.199	0.214	0.2	0.188	0.215	–	–	–	–	–
EKVX	0.932	0.936	0.733	0.618	0.581	0.447	0.331	0.397	0.348	0.297	0.202	0.21	0.185	0.189	0.17	0.299	0.34	0.261	0.289	0.275
EMC-BAC-2	0.737	0.621	0.659	0.534	0.526	0.3	0.281	0.272	0.262	0.271	0.897	0.854	0.771	0.718	0.351	1.11	0.853	0.84	0.681	0.562
EPLC-272H	1	0.722	0.766	0.64	0.265	0.366	0.266	0.224	0.249	0.243	1.02	0.88	0.761	0.64	0.216	0.426	0.404	0.37	0.298	0.246
H3255	0.834	0.9	0.708	0.519	0.543	0.72	0.674	0.528	0.476	0.389	0.249	0.3	0.27	0.232	0.214	0.685	0.556	0.605	0.48	0.492
HARA	1.07	0.917	1	1.01	1.02	0.123	0.0922	0.102	0.0898	0.0758	0.737	0.682	0.735	0.664	0.332	0.758	0.593	0.515	0.625	0.435
HCC-15	0.666	0.601	0.396	0.41	0.448	0.242	0.227	0.227	0.153	0.174	0.802	0.702	0.639	0.488	0.215	0.496	0.523	0.48	0.263	0.238

Cell Line	relative viability (Tipifarnib + Crizotinib; first compound 0.01 µM)	relative viability (Tipifarnib + Crizotinib; first compound 0.03162 µM)	relative viability (Tipifarnib + Crizotinib; first compound 0.1 µM)	relative viability (Tipifarnib + Crizotinib; first compound 0.3162 µM)	relative viability (Tipifarnib + Crizotinib; first compound 1 µM)	relative viability (Tipifarnib + Tozasertib; first compound 0.01 µM)	relative viability (Tipifarnib + Tozasertib; first compound 0.03162 µM)	relative viability (Tipifarnib + Tozasertib; first compound 0.1 µM)	relative viability (Tipifarnib + Tozasertib; first compound 0.3162 µM)	relative viability (Tipifarnib + Tozasertib; first compound 1 µM)	relative viability (Tipifarnib + Lapatinib; first compound 0.01 µM)	relative viability (Tipifarnib + Lapatinib; first compound 0.03162 µM)	relative viability (Tipifarnib + Lapatinib; first compound 0.1 µM)	relative viability (Tipifarnib + Lapatinib; first compound 0.3162 µM)	relative viability (Tipifarnib + Lapatinib; first compound 1 µM)	relative viability (Tipifarnib + Decitabine; first compound 0.01 µM)	relative viability (Tipifarnib + Decitabine; first compound 0.03162 µM)	relative viability (Tipifarnib + Decitabine; first compound 0.1 µM)	relative viability (Tipifarnib + Decitabine; first compound 0.3162 µM)	relative viability (Tipifarnib + Decitabine; first compound 1 µM)
HCC-44	0.749	0.698	0.599	0.576	0.568	0.935	0.665	0.572	0.623	0.578	0.876	0.898	0.853	0.767	0.494	0.869	0.846	0.934	0.847	0.804
HCC-78	0.321	0.357	0.303	0.29	0.266	0.403	0.371	0.388	0.32	0.297	0.661	0.633	0.514	0.54	0.37	0.786	0.756	0.719	0.664	0.514
HCC-366	0.695	0.389	0.151	0.17	0.034	0.091	0.0658	0.0515	0.0779	0.0476	0.981	0.822	0.345	0.235	0.039	0.345	0.337	0.19	0.174	0.16
HCC-827	0.868	0.883	0.712	0.617	0.552	0.41	0.409	0.335	0.26	0.334	0.184	0.208	0.152	0.186	0.172	0.324	0.333	0.293	0.293	0.259
IA-LM	0.533	0.548	0.291	0.272	0.263	–	–	–	–	–	0.295	0.192	0.215	0.144	0.156	–	–	–	–	–
LCLC-103H	1.01	1.01	0.893	0.87	0.85	0.413	0.375	0.364	0.309	0.31	–	–	–	–	–	0.757	0.672	0.785	0.635	0.673
NCI-H441	0.723	0.465	0.492	0.346	0.277	0.671	0.554	0.528	0.356	0.439	–	–	–	–	–	0.217	0.241	0.237	0.204	0.183
NCI-H1299	0.903	0.841	0.795	0.832	0.81	–	–	–	–	–	0.998	0.9	0.915	0.845	0.836	–	–	–	–	–
NCI-H1395	–	–	–	–	–	0.659	0.681	0.567	0.498	0.556	1.03	0.85	0.82	0.68	0.48	0.7	0.674	0.59	0.626	0.654
NCI-H1563	0.841	0.81	0.853	0.813	0.888	–	–	–	–	–	1	0.956	1.02	0.891	0.879	–	–	–	–	–
NCI-H1648	–	–	–	–	–	0.368	0.479	0.285	0.483	0.352	–	–	–	–	–	0.603	0.48	0.608	0.51	0.338
NCI-H1703	0.311	0.291	0.171	0.155	0.196	–	–	–	–	–	0.78	0.706	0.253	0.319	0.417	–	–	–	–	–
NCI-H1792	1.02	0.888	0.742	0.54	0.438	–	–	–	–	–	0.942	0.941	0.782	0.574	0.298	0.446	0.439	0.308	0.28	0.272
NCI-H1793	–	–	–	–	–	0.286	0.284	0.248	0.247	0.265	0.882	0.691	0.742	0.381	0.52	0.555	0.427	0.374	0.338	0.365
NCI-H2228	0.413	0.443	0.45	0.293	0.348	0.24	0.164	0.223	0.174	0.235	1.02	0.705	0.782	0.444	0.315	–	–	–	–	–
NCI-H2342	–	–	–	–	–	0.472	0.476	0.43	0.371	0.383	–	–	–	–	–	0.778	0.782	0.683	0.555	0.557
